These compounds were tested against T1, human FSH receptor (Homo sapiens, UniProt P23945) (assay: hFSHRago (CHO luc): agonistic activity at the human FSH receptor expressed in CHO cells, CRE-luciferase reporter). Conditions: CHO cells stably transfected with human FSH receptor and CRE/luciferase reporter; 4 hours of incubation.
T1 construct: expressed in transfected cells
T1 sequence (P23945 18-695): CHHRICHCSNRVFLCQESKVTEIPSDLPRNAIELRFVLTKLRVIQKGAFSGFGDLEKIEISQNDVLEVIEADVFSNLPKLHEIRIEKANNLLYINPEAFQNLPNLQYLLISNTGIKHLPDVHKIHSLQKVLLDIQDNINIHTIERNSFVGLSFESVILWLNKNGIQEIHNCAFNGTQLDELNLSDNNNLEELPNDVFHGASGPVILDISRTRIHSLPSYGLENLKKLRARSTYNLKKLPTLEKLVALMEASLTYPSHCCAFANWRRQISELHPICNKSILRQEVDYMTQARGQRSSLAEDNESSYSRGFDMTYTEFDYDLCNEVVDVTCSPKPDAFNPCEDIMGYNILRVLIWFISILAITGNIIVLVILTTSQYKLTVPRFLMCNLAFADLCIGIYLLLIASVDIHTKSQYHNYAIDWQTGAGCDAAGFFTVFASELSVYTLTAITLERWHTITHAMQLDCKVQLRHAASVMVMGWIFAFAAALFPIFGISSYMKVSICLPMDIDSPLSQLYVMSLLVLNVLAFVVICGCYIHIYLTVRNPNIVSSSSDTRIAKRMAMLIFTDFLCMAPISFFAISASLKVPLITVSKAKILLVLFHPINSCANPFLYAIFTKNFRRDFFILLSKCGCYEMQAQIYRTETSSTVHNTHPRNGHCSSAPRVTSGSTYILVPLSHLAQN
Assay type: cell-based

Compound	EC50 [nM]
COc1cc2c(cc1OC(C)C)-c1c(-c3cccs3)cc(C(=O)N3CCCN(C(=O)CCN)CC3)n1CC2 [Example 5, 3-Amino-1-[4-(9-isopropoxy-8-methoxy-1-thiophen-2-yl-5,6-dihydro-pyrrolo[2,1-α]isoquinoline-3-carbonyl)-[1,4]diazepan-1-yl]-propan-1-one]	1400
CNCC(=O)N1CCCN(C(=O)c2cc(-c3cccs3)c3n2CCc2cc(OC)c(OC(C)C)cc2-3)CC1 [Example 6, 1-[4-(9-Isopropoxy-8-methoxy-1-thiophen-2-yl-5,6-dihydro-pyrrolo[2,1-α]isoquinoline-3-carbonyl)-[1,4]diazepan-1-yl]-2-methylamino-ethanone]	264
COc1cc2c(cc1OC(C)C)-c1c(-c3cccs3)cc(C(=O)N3CCCN(C(=O)C4(SC)CCC4)CC3)n1CC2 [Example 9, (9-Isopropoxy-8-methoxy-1-thiophen-2-yl-5,6-dihydro-pyrrolo[2,1-α]isoquinolin-3-yl)-[4-(1-methylsulfanyl-cyclobutanecarbonyl)-[1,4]diazepan-1-yl]-methanone]	16.4
COc1cc2c(cc1OC(C)C)-c1c(-c3cccs3)cc(C(=O)N3CCNC(=O)CC3)n1CC2 [Example 13, 1-(9-Isopropoxy-8-methoxy-1-thiophen-2-yl-5,6-dihydro-pyrrolo[2,1-α]isoquinoline-3-carbonyl)-[1,4]diazepan-5-one]	106
CCCCN1CCN(C(=O)c2cc(-c3cccs3)c3n2CCc2cc(OC)c(OCC(=O)OCC)cc2-3)CCC1=O [Example 14c, [3-(4-Butyl-5-oxo-[1,4]diazepane-1-carbonyl)-8-methoxy-1-thiophen-2-yl-5,6-dihydro-pyrrolo[2,1-α]isoquinolin-9-yloxy]-acetic acid ethyl ester]	11
COc1cc2c(cc1OC(C)C)-c1c(-c3cccs3)cc(C(=O)N3CC=CC3)n1CC2 [Example 15, (2,5-Dihydro-pyrrol-1-yl)-(9-isopropoxy-8-methoxy-1-thiophen-2-yl-5,6-dihydro-pyrrolo[2,1-α]isoquinolin-3-yl)-methanone]	249
COc1cc2c(cc1OC(C)C)-c1c(-c3cccs3)cc(C(=O)N3CCCN(S(=O)(=O)c4ccc(C)cc4)CCC3)n1CC2 [Example 17, (9-Isopropoxy-8-methoxy-1-thiophen-2-yl-5,6-dihydro-pyrrolo[2,1-α]isoquinolin-3-yl)-[5-(toluene-4-sulfonyl)-perhydro-1,5-diazocin-1-yl]-methanone]	914
COc1cc2c(cc1OC(C)C)-c1c(-c3cccs3)cc(C(=O)N3CC4CC(CN(C(=O)CSC)C4)C3)n1CC2 [Example 21, 1-[7-(9-Isopropoxy-8-methoxy-1-thiophen-2-yl-5,6-dihydro-pyrrolo[2,1-α]isoquinoline-3-carbonyl)-3,7-diaza-bicyclo[3.3.1]non-3-yl]-2-methylsulfanyl-ethanone]	77.8
COc1cc2c(cc1OC(C)C)-c1c(-c3cccs3)cc(C(=O)N3CC4CC(C3)CN(C(=O)C3CCC3)C4)n1CC2 [Example 22, (7-Cyclobutanecarbonyl-3,7-diaza-bicyclo[3.3.1]non-3-yl)-(9-isopropoxy-8-methoxy-1-thiophen-2-yl-5,6-dihydro-pyrrolo[2,1-α]isoquinolin-3-yl)-methanone]	8.9
COc1cc2c(cc1OC(C)C)-c1c(-c3cccs3)cc(C(=O)NC3C[C@@H]4CN(C(C)=O)C[C@@H]4C3)n1CC2 (stereo partly drawn) [Example 23, 9-Isopropoxy-8-methoxy-1-thiophen-2-yl-5,6-dihydro-pyrrolo[2,1-α]isoquinoline-3-carboxylic acid (2-acetyl-octahydro-cyclopenta[c]pyrrol-5(endo)-yl)-amide]	787
COc1cc2c(cc1OC(C)C)-c1c(-c3cccs3)cc(C(=O)N(C)C3C[C@@H]4CN(C(C)=O)C[C@@H]4C3)n1CC2 (stereo partly drawn) [Example 24, 9-Isopropoxy-8-methoxy-1-thiophen-2-yl-5,6-dihydro-pyrrolo[2,1-α]isoquinoline-3-carboxylic acid (2-acetyl-octahydro-cyclopenta[c]pyrrol-5(endo)-yl)-methyl-amide]	191

Compounds with a lower EC50, results first:

EC50 [nM]	Compound
0.9	COc1cc2c(cc1OC(C)C)-c1c(-c3cccs3)cc(C(=O)N3CCCN(C(=O)C4CCCO4)CC3)n1CC2 (stereo not drawn) [Example 1, (9-Isopropoxy-8-methoxy-1-thiophen-2-yl-5,6-dihydro-pyrrolo[2,1-α]isoquinolin-3-yl)-[4-(tetrahydro-furan-2-carbonyl)-[1,4]diazepan-1-yl]-methanone]
0.5	COc1cc2c(cc1OC(C)C)-c1c(-c3cccs3)cc(C(=O)N3CCCN(C(=O)CSC)CC3)n1CC2 [Example 2, 1-[4-(9-Isopropoxy-8-methoxy-1-thiophen-2-yl-5,6-dihydro-pyrrolo[2,1-α]isoquinoline-3-carbonyl)-[1,4]diazepan-1-yl]-2-methylsulfanyl-ethanone]
4.6	COc1cc2c(cc1OC(C)C)-c1c(-c3cccs3)cc(C(=O)N3CCCN(S(=O)(=O)c4cccs4)CC3)n1CC2 [Example 3, (9-Isopropoxy-8-methoxy-1-thiophen-2-yl-5,6-dihydro-pyrrolo[2,1-α]isoquinolin-3-yl)-[4-(thiophene-2-sulfonyl)-[1,4]diazepan-1-yl]-methanone]
1.3	COc1cc2c(cc1OC(C)C)-c1c(-c3cccs3)cc(C(=O)N3CCCN(C(=O)C(O)C(F)(F)F)CC3)n1CC2 (stereo not drawn) [Example 4, 3,3,3-Trifluoro-2-hydroxy-1-[4-(9-isopropoxy-8-methoxy-1-thiophen-2-yl-5,6-dihydro-pyrrolo[2,1-α]isoquinoline-3-carbonyl)-[1,4]diazepan-1-yl]-propan-1-one]
1.7	COc1cc2c(cc1OC(C)C)-c1c(-c3cccs3)cc(C(=O)N3CCCN(C(=O)C4CCC4)CC3)n1CC2 [Example 7c, (4-Cyclobutanecarbonyl-[1,4]diazepan-1-yl)-(9-isopropoxy-8-methoxy-1-thiophen-2-yl-5,6-dihydro-pyrrolo[2,1-α]isoquinolin-3-yl)-methanone]
0.3	COc1cc2c(cc1OC(C)C)-c1c(-c3cccs3)c(C#N)c(C(=O)N3CCCN(C(=O)C4CCC4)CC3)n1CC2 [Example 7d, 3-(4-Cyclobutanecarbonyl-[1,4]diazepane-1-carbonyl)-9-isopropoxy-8-methoxy-1-thiophen-2-yl-5,6-dihydro-pyrrolo[2,1-α]isoquinoline-2-carbonitrile]
6.8	COc1cc2c(cc1OC(C)C)-c1c(-c3cccs3)cc(C(=O)N3CCCN(C(=O)C4(Br)CCC4)CC3)n1CC2 [Example 8, [4-(1-Bromo-cyclobutanecarbonyl)-[1,4]diazepan-1-yl]-(9-isopropoxy-8-methoxy-1-thiophen-2-yl-5,6-dihydro-pyrrolo[2,1-α]isoquinolin-3-yl)-methanone]
1.4	COc1cc2c(cc1OC(C)C)-c1c(-c3cccs3)cc(C(=O)N3CCCN(C(=O)C4(O)CCC4)CC3)n1CC2 [Example 10, [4-(1-Hydroxy-cyclobutanecarbonyl)-[1,4]diazepan-1-yl]-(9-isopropoxy-8-methoxy-1-thiophen-2-yl-5,6-dihydro-pyrrolo[2,1-α]isoquinolin-3-yl)-methanone]
5.4	COc1cc2c(cc1OC(C)C)-c1c(-c3cccs3)cc(C(=O)N3CCCN(C(=O)C4(OC)CCC4)CC3)n1CC2 [Example 11, (9-Isopropoxy-8-methoxy-1-thiophen-2-yl-5,6-dihydro-pyrrolo[2,1-α]isoquinolin-3-yl)-[4-(1-methoxy-cyclobutanecarbonyl)-[1,4]diazepan-1-yl]-methanone]
5.2	COc1cc2c(cc1OC(C)C)-c1c(-c3cccs3)cc(C(=O)N3CCCN(C(C)=O)CC3)n1CC2 [Example 12a]
1.9	COc1cc2c(cc1OC(C)C)-c1c(-c3cccs3)c(Cl)c(C(=O)N3CCCN(C(C)=O)CC3)n1CC2 [Example 12b, 1-[4-(2-Chloro-9-isopropoxy-8-methoxy-1-thiophen-2-yl-5,6-dihydro-pyrrolo[2,1-α]isoquinoline-3-carbonyl)-[1,4]diazepan-1-yl]-ethanone]
0.8	CCCCN1CCN(C(=O)c2cc(-c3cccs3)c3n2CCc2cc(OC)c(OC(C)C)cc2-3)CCC1=O [Example 14a, 4-Butyl-1-(9-isopropoxy-8-methoxy-1-thiophen-2-yl-5,6-dihydro-pyrrolo[2,1-α]iso-quinoline-3-carbonyl)-[1,4]diazepan-5-one]
1.5	CCCCN1CCN(C(=O)c2cc(-c3cccs3)c3n2CCc2cc(OC)c(OCC(C)(C)O)cc2-3)CCC1=O [Example 14d, 4-Butyl-1-[9-(2-hydroxy-2-methyl-propoxy)-8-methoxy-1-thiophen-2-yl-5,6-dihydro-pyrrolo[2,1-α]isoquinoline-3-carbonyl]-[1,4]diazepan-5-one]
8.2	COc1cc2c(cc1OC(C)C)-c1c(-c3cccs3)cc(C(=O)N3CC4CC(CN(C(C)=O)C4)C3)n1CC2 [Example 20, 1-[7-(9-isopopoxy-8-methoxy-1-thiophen-2-yl-5,6-dihydro-pyrrolo[2,1-α]isoquinoline-3-carbonyl)-3,7-diaza-bicyclo[3.3.1]non-3-yl]-ethanone]

Source: patent publication US8394789B2, “(Dihydro)pyrrolo[2,1-α]isoquinolines” (MSD Oss B.V., priority 2008, dated 2013)
